According to patent US9394331B2, “2′-spiro-nucleosides and derivatives thereof useful for treating hepatitis C virus and dengue virus infections” (priority 2010, dated 2016):
pEC50, pIC50: −log10 of the molar value. Like-named read-outs stand apart in the source and are kept apart here.

Legend:
HCV replicon = HCV replicon assay (Clone A cells and ET-lunet cells, HCV RNA by real time PCR); format: cell-based, hepatitis C virus; conditions: Table 3, HCV 1b replicon; for pEC50: read-out: EC50, anti-HCV 1b activity; for EC90: read-out: EC90, anti-HCV 1b activity
Experimental: HCV replicon assay. HCV replicon assays using Clone A cells and ET-lunet cells were performed as described previously. L. J. Stuyver et al. Antimicrob. Agents Chemother. 2004, 48, 651-654. Briefly, Clone A cells and ET-lunet cells were seeded at a density of 1500 and 3000 cells per well in a 96-well plate, respectively. Test compounds serially diluted in culture medium without G418 were added to cells. Plates were incubated at 37° C. in a 5% CO2 atmosphere for 4 days. Inhibition of HCV RNA replication was determined by quantitative real time PCR. See, e.g., L. J. Stuyver et al. Antiviral Chem. Chemother. 2006, 17, 79-87.
To express the antiviral effectiveness of a compound, the threshold RT-PCR cycle of the test compound was subtracted from the average threshold RT-PCR cycle of the no-drug control (ΔCtHCV). A ΔCt of 3.3 equals a 1-log 10 reduction (equal to the 90% effective concentration [EC90]) in replicon RNA levels. The cytotoxicity of the test compound could also be expressed by calculating the ΔCtrRNA values. The ΔΔCt specificity parameter could then be introduced (ΔCtHCV-ΔCtrRNA), in which the levels of HCV RNA are normalized for the rRNA levels and calibrated against the no-drug control.

[1] = test system: Huh7, HepG2, BxPC3, or CEM cells; assay: Cell cytotoxicity assay (MTS); format: cell-based; conditions: Table 3; cell line not stated
Experimental: (§1) Cell cytotoxicity assays. Each compound (serially diluted from 100 μM) was added to Huh7 (2×10^3 cells/well), HepG2 (2×10^3 cells/well), BxPC3 (2×10^3 cells/well), or CEM (5×10^3 cells/well) cells and allowed to incubate for 8 days at 37° C. A medium only control was used to determine the minimum absorbance value […]. At the end of the growth period, MTS dye from the CellTiter 96 Aqueous One Solution Cell Proliferation Assay kit (Promega) was added to each well and the plate was incubated for an additional 2 hours. The absorbance at 490 nm was read with a Victor3 plate reader (Perkin Elmer) using the medium only control wells as blanks. The 50% inhibition value (CC50) was determined by comparing the absorbance in wells containing cells and test compound to untreated cell control wells.

[2] = test system: Dengue 2 strain New Guinea C; assay: Dengue CPE assay; format: cell-based, Dengue virus 2; conditions: Table 6, BHK-21 cells, 3 days, 50% cells surviving, read-out: EC50, activity against dengue virus
Experimental: Dengue CPE Assay. To measure cytopathic effect of Dengue virus 2, BHK-21 ([…], CCL-10 ATCC Manassas, Va.) cells were seeded at a density of 20,000 cells/well in a 96-well black/clear bottom plates (Becton Dickinson, Franklin Lakes, N.J.) one day prior to start of the assay and allowed to attach overnight in EMEM (ATCC Manassas, Va.) +10% FBS (Invitrogen, Carlsbad, Calif.) at 37° C. in a humidified 5% CO2 atmosphere. The next day, the medium was removed and the cells were infected with Dengue 2 strain New Guinea C (VR-1584, ATCC Manassas, Va.) at an MOI of 0.08 pfu/cell for two hours in 50 μL EMEM+2% FBS. For both the single point and dose response assays, compounds (2× concentration) were diluted in EMEM+2% FBS and 50 μL was added to infected cells without removing virus. Cells were incubated for 3 days at 37° C. in a humidified 5% CO2 atmosphere. The medium was aspirated and 50 μL of CellTiter-Glo (Promega, Madison, Wis.) was added to each well and read for 0.1 seconds on a Perkin Elmer Victor3 (Waltham, Mass.) plate reader. Percent survival was determined by subtracting the average value of infected control wells and normalizing to the non-infected wells. The effective concentration was calculated from the dose response data by forecasting 50% cells surviving with drug treatment.

[3] = Cytotoxicity reported with the dengue assay; format: cell-based; conditions: Table 6; cell line not stated
[4] = Cell cytotoxicity assay (MTS); format: cell-based; conditions: human; Table 3; cell line not stated; read-out: CC50
Experimental: as §1

[5] = target: wild type NS5B Genotype 1b (Hepatitis C virus genotype 1b (isolate Con1) (HCV), UniProt Q9WMX2); assay: HCV NS5B polymerase reaction, wild type; format: biochemical; conditions: Table 5, nucleoside triphosphates
Chain of wild type NS5B Genotype 1b (Q9WMX2 2420-3010): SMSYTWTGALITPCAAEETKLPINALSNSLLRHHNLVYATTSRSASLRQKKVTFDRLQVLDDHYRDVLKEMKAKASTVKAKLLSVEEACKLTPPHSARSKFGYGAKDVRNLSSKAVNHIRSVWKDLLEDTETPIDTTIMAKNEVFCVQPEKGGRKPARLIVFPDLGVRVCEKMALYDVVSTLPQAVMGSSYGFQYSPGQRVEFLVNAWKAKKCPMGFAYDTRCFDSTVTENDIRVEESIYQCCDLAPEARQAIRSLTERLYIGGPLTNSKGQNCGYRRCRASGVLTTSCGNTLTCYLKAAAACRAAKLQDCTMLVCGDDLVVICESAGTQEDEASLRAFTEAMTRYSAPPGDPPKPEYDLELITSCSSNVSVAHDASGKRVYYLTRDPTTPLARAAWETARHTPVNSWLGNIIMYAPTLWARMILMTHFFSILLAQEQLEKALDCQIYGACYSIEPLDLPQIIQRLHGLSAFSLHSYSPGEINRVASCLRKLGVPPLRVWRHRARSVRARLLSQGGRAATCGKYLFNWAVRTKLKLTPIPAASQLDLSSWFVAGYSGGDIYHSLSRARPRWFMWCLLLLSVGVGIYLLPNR

S282T NS5B Genotype 1b = S282T NS5B Genotype 1b (Hepatitis C virus genotype 1b (isolate Con1) (HCV), UniProt Q9WMX2, S2701T); assay: HCV NS5B polymerase reaction, S282T mutant; format: biochemical; conditions: Table 5, nucleoside triphosphates
Chain of S282T NS5B Genotype 1b (Q9WMX2 2420-3010 S2701T): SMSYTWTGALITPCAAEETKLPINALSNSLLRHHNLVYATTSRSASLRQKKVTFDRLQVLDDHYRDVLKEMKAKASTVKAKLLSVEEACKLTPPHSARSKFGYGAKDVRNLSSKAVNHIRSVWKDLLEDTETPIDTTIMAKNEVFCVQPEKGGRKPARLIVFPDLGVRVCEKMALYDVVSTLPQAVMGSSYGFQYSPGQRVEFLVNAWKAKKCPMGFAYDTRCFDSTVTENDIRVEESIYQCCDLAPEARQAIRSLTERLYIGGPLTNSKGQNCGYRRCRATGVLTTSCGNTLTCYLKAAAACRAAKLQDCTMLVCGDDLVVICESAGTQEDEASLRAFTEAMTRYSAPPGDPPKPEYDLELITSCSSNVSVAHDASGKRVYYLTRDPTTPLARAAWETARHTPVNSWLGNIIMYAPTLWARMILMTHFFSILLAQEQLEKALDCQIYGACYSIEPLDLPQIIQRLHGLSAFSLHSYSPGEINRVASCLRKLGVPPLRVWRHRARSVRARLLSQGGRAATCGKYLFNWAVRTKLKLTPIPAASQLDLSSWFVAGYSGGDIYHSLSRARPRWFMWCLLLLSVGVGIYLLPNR
Experimental: The HCV NS5B reaction was performed in a 20 μL mixture containing varying concentrations of the test compound, 1 μM of all four natural ribonucleotides, [α-^32P]UTP, 20 ng/μL of genotype 1b (−) IRES RNA template, 1 unit/μL of SUPERase•In (Ambion, Austin, Tex.), 40 ng/μL of wild type or S282T NS5B Genotype 1b, 1 mM MgCl2, 0.75 mM MnCl2, and 2 mM DTT in 50 mM Hepes buffer (pH 7.5). The reaction was quenched by adding 80 μL of stop solution (12.5 mM EDTA, 2.25 M NaCl, and 225 mM sodium citrate) after incubating at 27° C. for 30 minutes. The radioactive RNA products were separated from unreacted substrates by passing the quenched reaction mixture through a Hybond N+ membrane (GE Healthcare, Piscataway, N.J.) using a dot-blot apparatus. The RNA products were retained on the membrane and the free nucleotides were washed out. The membrane was washed 4 times with a solution containing 0.6 M NaCl and 60 mM sodium citrate. After rinsing the membrane with water followed by ethanol, the membrane was exposed to a phosphorscreen and the products were visualized and quantified using a phosphorimager. The IC50 values were calculated using GraFit program version 5 (Erithacus Software, Horley, Surrey, UK). All the reactions were done in duplicate and the results were reported as IC50±standard error.

Structure (SMILES)	pEC50 (HCV replicon)	EC90 (HCV replicon)	CC50 [1]	pEC50 ([2]; Dengue virus, BHK-21, 72 h)	CC50 [3]	pEC50 [2]	CC50 at 8 days [4]	pIC50 [5]	further results
COc1nc(N)nc2c1ncn2C1OC(COP(=O)(N[C@@H](C)C(=O)OC(C)C)Oc2ccccc2)[C@@H](O)[C@]12CCO2 (stereo partly drawn) [compound 119]	5.34	> 20 µM	> 20 µM	5.06	> 20 µM	–	–	–	–
COc1nc(N)nc2c1ncn2C1OC(COP(=O)(N[C@@H](C)C(=O)OCC(C)(C)C)Oc2ccccc2)[C@@H](O)[C@]12CCO2 (stereo partly drawn) [compound 121]	5.03	18.5 µM	> 20 µM	–	> 20 µM	5.65	–	–	–
CCOC(=O)[C@H](C)NP(=O)(OCC1OC(n2cnc3c(OC)nc(N)nc32)[C@@]2(CCO2)[C@@H]1O)Oc1ccccc1 (stereo partly drawn) [compound 122]	–	–	–	5.23	> 20 µM	–	> 20 µM	–	pEC50 (HCV replicon; Hepatitis C virus): 6.07; EC90 (HCV replicon; Hepatitis C virus): 3 µM
COc1nc(N)nc2c1ncn2C1OC(COP(=O)(N[C@@H](C)C(=O)OCC(C)(C)C)Oc2cccc3ccccc23)[C@@H](O)[C@]12CCO2 (stereo partly drawn) [compound 123]	–	–	–	5.76	> 20 µM	–	> 20 µM	–	pEC50 (HCV replicon; Hepatitis C virus): 6.51; EC90 (HCV replicon; Hepatitis C virus): 0.853 µM
COc1nc(N)nc2c1ncn2C1OC(COP(=O)(N[C@@H](C)C(=O)OCC(C)C)Oc2ccccc2)[C@@H](O)[C@]12CCO2 (stereo partly drawn) [compound 124]	6.25	1.81 µM	–	5.66	> 20 µM	–	> 20 µM	–	–
COc1nc(N)nc2c1ncn2C1OC(COP(=O)(N[C@@H](C)C(=O)OCC(C)C)Oc2ccccc2)[C@@H](O)[C@]12CCO2 (stereo partly drawn) [compound 125]	5.35	8.45 µM	> 20 µM	–	> 20 µM	5.70	–	–	–
CCCCOC(=O)[C@H](C)NP(=O)(OCC1OC(n2cnc3c(OC)nc(N)nc32)[C@@]2(CCO2)[C@@H]1O)Oc1ccccc1 (stereo partly drawn) [compound 126]	6.56	0.7 µM	–	5.63	> 20 µM	–	> 20 µM	–	–
CCCCOC(=O)[C@H](C)NP(=O)(OCC1OC(n2cnc3c(OC)nc(N)nc32)[C@@]2(CCO2)[C@@H]1O)Oc1ccccc1 (stereo partly drawn) [compound 127]	5.51	6.45 µM	> 20 µM	–	> 20 µM	5.79	–	–	–
COc1nc(N)nc2c1ncn2C1OC(COP(=O)(N[C@@H](C)C(=O)OC2CCCC2)Oc2ccccc2)[C@@H](O)[C@]12CCO2 (stereo partly drawn) [compound 128]	–	–	–	5.55	> 20 µM	–	> 20 µM	–	pEC50 (HCV replicon; Hepatitis C virus): 6.35; EC90 (HCV replicon; Hepatitis C virus): 1.09 µM
COc1nc(N)nc2c1ncn2C1OC(COP(=O)(N[C@@H](C)C(=O)OC2CCCC2)Oc2ccccc2)[C@@H](O)[C@]12CCO2 (stereo partly drawn) [compound 129]	6.17	1.97 µM	> 20 µM	–	> 20 µM	5.63	–	–	–
COc1nc(N)nc2c1ncn2C1OC(COP(=O)(N[C@@H](C)C(=O)OCc2ccccc2)Oc2ccccc2)[C@@H](O)[C@]12CCO2 (stereo partly drawn) [compound 130]	–	–	–	–	> 20 µM	5.42	> 20 µM	–	pEC50 (HCV replicon; Hepatitis C virus): 5.06; EC90 (HCV replicon; Hepatitis C virus): 15.1 µM
COc1nc(N)nc2c1ncn2C1OC(COP(=O)(N[C@@H](C)C(=O)OCc2ccccc2)Oc2ccccc2)[C@@H](O)[C@]12CCO2 (stereo partly drawn) [compound 131]	4.93	> 20 µM	> 20 µM	–	> 20 µM	5.83	–	–	–
O=c1ccn(C2OC(CO)[C@@H](O)[C@@]23CCCO3)c(=O)[nH]1 (stereo partly drawn) [compound 135]	–	–	–	–	–	–	–	< 4.00	–
O=c1ccn(C2OC(CO)[C@@H](O)[C@]23CCO3)c(=O)[nH]1 (stereo partly drawn) [compound 136]	–	–	–	–	–	–	–	4.40	pIC50 (S282T NS5B Genotype 1b): < 4.00
Nc1ccn(C2OC(CO)[C@@H](O)[C@]23CCCO3)c(=O)n1 (stereo partly drawn) [compound 137]	–	–	–	–	–	–	–	< 4.34	pIC50 (S282T NS5B Genotype 1b): < 4.00
Nc1ccn(C2OC(CO)[C@@H](O)[C@@]23CCCO3)c(=O)n1 (stereo partly drawn) [compound 138]	–	–	–	–	–	–	–	< 4.00	–
Nc1ccn(C2OC(CO)[C@@H](O)[C@@]23CCO3)c(=O)n1 (stereo partly drawn) [compound 139]	–	–	–	–	–	–	–	< 4.00	–
Nc1ccn(C2OC(CO)[C@@H](O)[C@]23CCO3)c(=O)n1 (stereo partly drawn) [compound 140]	–	–	–	–	–	–	–	< 5.07	pIC50 (S282T NS5B Genotype 1b): 4.25
